Source: publication PMC5635026, “Homo-PROTACs: bivalent small-molecule dimerizers of the VHL E3 ubiquitin ligase to induce self-degradation” (Nature Communications, 2017)

How the values were obtained:
Cullin2 = assay: Immunoblot of Cullin2 protein level in HeLa cells after compound treatment; type: cell-based, Human; conditions: for reduction of Cullin2 levels: 1 µM, 10 h
Description: (§1) Cell culture. Human cell lines HeLa, U2OS and HEK 293, purchased from ATCC, were propagated in DMEM supplemented with 10% fetal bovine serum (FBS), L- glutamine, 100 μg ml^−1 of penicillin/streptomycin at 37 °C and 5% CO2. Cells were maintained for no more than 30 passages. All cell lines were routinely tested for mycoplasma contamination using MycoAlert kit from Lonza. For compound treatment experiments, cells were transferred in six-well plates with either 3 × 10^5 or 5 × 10^5 cells per well in 2 ml of media. At 80% confluence, cells were treated with compounds at the desired concentration, reaching final DMSO concentration of 0.1% v/v. Cells were incubated at 37 °C and 5% CO2 for the desired time before harvesting.
Immunoblotting. Cells were lysed in lysis buffer (20 mM Tris pH 8, 150 mM NaCl, 1% Triton × 100) and a protease inhibitor cocktail (Roche) per 10 ml buffer. For protein extracts, the dishes were placed on ice. The media was aspirated and the tissue layer washed twice with ice-cold phosphate buffer saline (PBS). Lysis buffer (120 μl) was added and the cells detached from the surface with a cell scraper. After removal of the insoluble fraction by centrifugation, the protein concentration of the supernatant was determined by Pierce™ Coomassie (Bradford) Protein Assay Kit. Protein extracts were fractionated by SDS-PAGE on 4–12% Tris-Acetate NuPage® Novex® (Life Technologies) polyacrylamide gels and transferred to a nitrocellulose membrane using wet transfer. The membrane was then blocked with 5 % w/v Bovine serum albumin (BSA) in Tris-buffered saline (TBS) with 0.1% w/v Tween-20. […] Band quantification was performed using ImageJ software and reported as relative amount as ratio of the each protein band relative to the lane’s loading control. […]

Hdy-HIF-1α = assay: Immunoblot of HIF-1α / hydroxylated HIF-1α levels in HeLa cells; type: cell-based, Human; conditions: HeLa; for protein levels of hydroxylated HIF-1α (Hdy-HIF-1α): 1 µM, 10 h; for stabilization of Hdy-HIF-1α: 100 µM
Description: as §1
Immunoblotting. Cells were lysed in lysis buffer (20 mM Tris pH 8, 150 mM NaCl, 1% Triton × 100) and a protease inhibitor cocktail (Roche) per 10 ml buffer. For protein extracts, the dishes were placed on ice. The media was aspirated and the tissue layer washed twice with ice-cold phosphate buffer saline (PBS). Lysis buffer (120 μl) was added and the cells detached from the surface with a cell scraper. After removal of the insoluble fraction by centrifugation, the protein concentration of the supernatant was determined by Pierce™ Coomassie (Bradford) Protein Assay Kit. Protein extracts were fractionated by SDS-PAGE on 4–12% Tris-Acetate NuPage® Novex® (Life Technologies) polyacrylamide gels and transferred to a nitrocellulose membrane using wet transfer. The membrane was then blocked with 5 % w/v Bovine serum albumin (BSA) in Tris-buffered saline (TBS) with 0.1% w/v Tween-20. For detecting proteins the following primary antibodies in the given concentrations were used: anti-β-Actin (Cell Signaling Technology, 4970S, 13E5) 1:2000, anti-VHL (Cell Signaling Technology, #68547) 1:1000, anti-Hif-1α (BD Biosciences, 610959, clone 54) 1:1,000, anti-hydroxy-HIF-1α (Hyp564) (Cell Signaling Techonology; #3434) 1:1,000, anti-PHD2 (Bethyl Laboratories; A300-322A) 1:1,000, anti-PHD3 (Bethyl Laboratories; A300-327A) 1:1000, anti-CRBN (Proteintech; 11435-1-AP) 1:1,000. Following incubation with a horseradish peroxidase-conjugated secondary antibody (Cell Signaling Technology), the signal was developed using enhanced chemiluminescence (ECL) Western Blotting Detection Kit (Amersham) on Amersham Hyperfilm ECL film (Amersham). Band quantification was performed using ImageJ software and reported as relative amount as ratio of the each protein band relative to the lane’s loading control. The values obtained were then normalized to 0.1% DMSO vehicle control. See Supplementary Fig. 12 for full-scanned images of western-blots shown in the main text figures.

Dermcidin (DCD) = assay: TMT MS proteomics in HeLa cells, DCD abundance; type: cell-based, Homo sapiens; conditions: 1 µM, 10 h, two replicates
Description: (§2) MS proteomics. Sample preparation. HeLa cells were seeded at 5 × 10^6 on a 10 cm plate 16 h before treatment. […] Cells were incubated at 37 °C and 5% CO2 for 10 h before harvesting. Cells were placed on ice and medium was removed and cells were washed twice with cold PBS. Cells were lysed in 0.5 ml of 100 mM Tris pH 8.0, 4% (w/v) SDS supplemented with protease inhibitor cocktail (Roche). The lysate was pulse sonicated briefly and then centrifuged at 17,000 × g for 15 min at 4 °C. The supernatant fraction of cell extract was snap-frozen in liquid nitrogen and stored in −80 °C freezer. Further sample processing, digestion, desalting, labeling and fractionation were performed as previously described.
(§3) nLC-MS/MS analysis. The TMT 10plex fractions were first analyzed as previously described. Briefly, the TMT 10plex fractions were analyzed sequentially on a Q Exactive HF Hybrid Quadrupole-Orbitrap Mass Spectrometer (Thermo Scientific) coupled to an UltiMate 3000 RSLCnano UHPLC system (Thermo Scientific) and EasySpray column (75 μm × 50 cm, PepMap RSLC C18 column, 2 μm, 100 Å, Thermo Scientific). The MS2 isolation window was set to 0.4 Da and the resolution set at 120,000. MS2 resolution was set at 60,000. The AGC targets for MS1 and MS2 were set at 3e^6 ions and 1e5 ions, respectively. The normalized collision energy was set at 32%. […] After the first analysis, the TMT labeled fractions were re-analyzed on the Q-Exactive HF using the same instrument settings and a target list generated from a theoretical trypsin digest of VHL. […] After the second analysis, two fractions were further analyzed using a targeted SIM/ddMS2 method on the Q-Exactive HF. […]
(§4) Peptide and protein identification. All the raw MS data files from the three analyses were merged and searched against the Uniprot-sprot-Trembl-Human-Canonical database by Maxquant software 1.5.3.30 for protein identification and TMT reporter ion quantitation. […] Quantified proteins were filtered if the absolute fold-change difference between the two DMSO replicates was ≥ 1.5.

[1] = tested on: Protein-glutamine gamma-glutamyltransferase E (TGM3); assay: TMT MS proteomics in HeLa cells, TGM3 abundance; type: cell-based, Homo sapiens; conditions: 1 µM, 10 h, two replicates
Description: as §2, §3, §4

Row | SMILES | reduction of Cullin2 levels (Cullin2) | protein levels of hydroxylated HIF-1α (Hdy-HIF-1α) (Hdy-HIF-1α) | stabilization of Hdy-HIF-1α (Hdy-HIF-1α) | average normalized ratio to DMSO, DCD (Dermcidin (DCD)) | average normalized ratio to DMSO, TGM3 [1] | decrease of cellular levels of Cullin2 (Cullin2; dose-response, 4 or 24 h, Fig. 5a)
1 | Cc1ncsc1-c1ccc(CNC(=O)[C@@H]2C[C@@H](O)CN2C(=O)[C@@H](NC(=O)COCCOCCOCCOCCOCC(=O)N[C@H](C(=O)N2C[C@H](O)C[C@H]2C(=O)NCc2ccc(-c3scnc3C)cc2)C(C)(C)C)C(C)(C)C)cc1 [CM10, N ^1 ,N ^17-bis((S)-1-((2S,4R)-4-hydroxy-2-((4-(4-methylthiazol-5-yl)benzyl)carbamoyl)pyrrolidin-1-yl)-3,3-dimethyl-1-oxobutan-2-yl)-3,6,9,12,15-pentaoxaheptadecanediamide] | up to 22% | detectable albeit low increase | comparable with the effect obtained with VH032 alone | 1.33 | 0.99 | 
2 | Cc1ncsc1-c1ccc(CNC(=O)[C@@H]2C[C@@H](O)CN2C(=O)[C@@H](NC(=O)COCCOCCOCCOCC(=O)N[C@H](C(=O)N2C[C@H](O)C[C@H]2C(=O)NCc2ccc(-c3scnc3C)cc2)C(C)(C)C)C(C)(C)C)cc1 [CM09, N ^1 ,N ^14-bis((S)-1-((2S,4R)-4-hydroxy-2-((4-(4-methylthiazol-5-yl)benzyl)carbamoyl)pyrrolidin-1-yl)-3,3-dimethyl-1-oxobutan-2-yl)-3,6,9,12-tetraoxatetradecanediamide] |  |  | comparable with the effect obtained with VH032 alone | 1.41 | 1.74 | 
3 | Cc1ncsc1-c1ccc(CNC(=O)[C@@H]2C[C@@H](O)CN2C(=O)[C@@H](NC(=O)COCCOCCOCCOCCOCCOCC(=O)N[C@H](C(=O)N2C[C@H](O)C[C@H]2C(=O)NCc2ccc(-c3scnc3C)cc2)C(C)(C)C)C(C)(C)C)cc1 [CM11, N ^1 ,N ^20-bis((S)-1-((2S,4R)-4-hydroxy-2-((4-(4-methylthiazol-5-yl)benzyl)carbamoyl)pyrrolidin-1-yl)-3,3-dimethyl-1-oxobutan-2-yl)-3,6,9,12,15,18-hexaoxaicosanediamide] | up to 22% | detectable albeit low increase | comparable with the effect obtained with VH032 alone | 0.87 | 0.72 | up to 73%
